{
  "source": "patent US20240366813A1",
  "about": "“PEPTIDE-UREA DERIVATIVE, PHARMACEUTICAL COMPOSITION CONTAINING SAME AND APPLICATION THEREOF” (Bivision Pharmaceuticals, Inc., priority 0001, published 2024)",
  "test_system": "LNCaP PSMA-positive tumors",
  "experiment": "SPECT imaging in mice carrying LNCaP PSMA-positive tumors",
  "format": "in vivo",
  "conditions": "100 μCi tail vein",
  "experimental": "100 μCi of ^177Lu-labeled ^177Lu-E3 and ^177Lu-PSMA-617 were injected into mice carrying LNCaP PSMA-positive tumors (Jiangsu Huajing Molecular Imaging and Drug Research Institute Co., Ltd.) through the tail vein respectively. Mice were anesthetized with 2% isoflurane/98% oxygen for SPECT image contrast study.",
  "data": [
    {"smiles": "O=C([O-])CN1CCN(CC(=O)[O-])CCN(CC(=O)N2CCc3cc(C(=O)NC(Cc4ccc5ccccc5c4)C(=O)NCCCCC(NC(=O)NC(CCC(=O)O)C(=O)O)C(=O)O)ccc3C2)CCN(CC(=O)[O-])CC1.[177Lu+3]", "note": "(stereo not drawn) [^177Lu-E3]", "values": [
      {"measurement": "accumulation in PSMA-positive tumors compared with reference animals injected with ^177Lu-PSMA-617", "value": "significantly higher"},
      {"measurement": "route of excretion", "value": "mainly excreted through the kidney"},
      {"measurement": "Heart, Averaged", "setting": "1 h", "value": 6.44, "unit": "% ID/cc"},
      {"measurement": "Kidney, Averaged", "setting": "1 h", "value": 165.36, "unit": "% ID/cc"},
      {"measurement": "Liver, Averaged", "setting": "1 h", "value": 3.08, "unit": "% ID/cc"},
      {"measurement": "Lung, Averaged", "setting": "1 h", "value": 5.52, "unit": "% ID/cc"},
      {"measurement": "Tumor, Averaged", "setting": "1 h", "value": 23.56, "unit": "% ID/cc"},
      {"measurement": "Heart, Averaged", "setting": "4 h", "value": 2.41, "unit": "% ID/cc"},
      {"measurement": "Kidney, Averaged", "setting": "4 h", "value": 129.55, "unit": "% ID/cc"},
      {"measurement": "Liver, Averaged", "setting": "4 h", "value": 2.03, "unit": "% ID/cc"},
      {"measurement": "Lung, Averaged", "setting": "4 h", "value": 3.26, "unit": "% ID/cc"},
      {"measurement": "Tumor, Averaged", "setting": "4 h", "value": 28.79, "unit": "% ID/cc"},
      {"measurement": "Heart, Averaged", "setting": "8 h", "value": 1.39, "unit": "% ID/cc"},
      {"measurement": "Kidney, Averaged", "setting": "8 h", "value": 87.74, "unit": "% ID/cc"},
      {"measurement": "Liver, Averaged", "setting": "8 h", "value": 2.54, "unit": "% ID/cc"},
      {"measurement": "Lung, Averaged", "setting": "8 h", "value": 1.82, "unit": "% ID/cc"},
      {"measurement": "Tumor, Averaged", "setting": "8 h", "value": 31.79, "unit": "% ID/cc"},
      {"measurement": "Heart, Averaged", "setting": "1 d", "value": 3.23, "unit": "% ID/cc"},
      {"measurement": "Kidney, Averaged", "setting": "1 d", "value": 8.03, "unit": "% ID/cc"},
      {"measurement": "Liver, Averaged", "setting": "1 d", "value": 1.94, "unit": "% ID/cc"},
      {"measurement": "Lung, Averaged", "setting": "1 d", "value": 2.71, "unit": "% ID/cc"},
      {"measurement": "Tumor, Averaged", "setting": "1 d", "value": 34.01, "unit": "% ID/cc"},
      {"measurement": "Heart, Averaged", "setting": "3 d", "value": 2.03, "unit": "% ID/cc"},
      {"measurement": "Kidney, Averaged", "setting": "3 d", "value": 3.74, "unit": "% ID/cc"},
      {"measurement": "Liver, Averaged", "setting": "3 d", "value": 1.80, "unit": "% ID/cc"},
      {"measurement": "Lung, Averaged", "setting": "3 d", "value": 2.68, "unit": "% ID/cc"},
      {"measurement": "Tumor, Averaged", "setting": "3 d", "value": 32.84, "unit": "% ID/cc"}
    ]}
  ]
}
